In patent publication US20250108038A1 (priority 2023, published 2025):
Several values for one entry are separate records, joined by “and”; a condition that tells them apart may be missing. Identical values can stand only once. Like-named read-outs stand apart in the source and are kept apart here.

Key:
physchem = settings: kinetic from dmso stock
CYP1A2 = target: T1, CYP1A2 (Homo sapiens, UniProt P05177); experiment: in vitro; settings: both, microsomes, pH 7.4
T1 sequence (P05177 1-516): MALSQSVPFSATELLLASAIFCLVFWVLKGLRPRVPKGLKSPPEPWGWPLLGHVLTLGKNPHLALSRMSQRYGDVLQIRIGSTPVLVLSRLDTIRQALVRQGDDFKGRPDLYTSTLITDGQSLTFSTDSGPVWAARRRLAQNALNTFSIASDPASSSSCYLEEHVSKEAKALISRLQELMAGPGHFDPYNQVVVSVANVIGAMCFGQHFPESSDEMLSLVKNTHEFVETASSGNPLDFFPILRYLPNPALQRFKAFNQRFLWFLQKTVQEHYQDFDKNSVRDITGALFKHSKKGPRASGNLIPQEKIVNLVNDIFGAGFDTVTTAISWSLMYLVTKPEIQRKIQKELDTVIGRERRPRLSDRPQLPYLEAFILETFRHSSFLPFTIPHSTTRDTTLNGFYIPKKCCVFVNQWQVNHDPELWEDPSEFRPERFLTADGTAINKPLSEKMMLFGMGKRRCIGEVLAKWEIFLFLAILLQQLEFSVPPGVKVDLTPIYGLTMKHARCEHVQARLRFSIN

[1] = Plasma and brain concentrations after 3 mg/kg i.p. in male CD-1 mice; settings: for fu* Cmax: fu by equilibrium dialysis after 6 h
Protocol: Following dosing, three animals were sacrificed per time-point for the collection of terminal plasma and brain. […] Pharmacokinetics (PK) parameters for plasma and whole brain were estimated from the mean plasma and brain concentration versus time profiles.
The animals will be acclimatized to their new environment for a minimum of 5 days prior to study start.
Any unused dosing solutions will be stored at approximately −80° C. until transferred on dry ice to the bioanalytical facility.
The animals will be dosed intra-peritoneally (i.p.) into the lower right quadrant of the abdomen using a 0.5 mL Tuberculin syringe with attached needle 27 G×[…].
Whole blood will be collected via cardiac puncture under isoflurane anesthesia from three mice at each time-point at the collection times outlined in Table 2. Up to 0.8 mL of blood will be collected into 0.8 mL mini-collect K2EDTA coated tubes. Blood tubes will be centrifuged at 3200×g for 5 min. at 4° C. and plasma transferred into 1.5 mL flip top tubes. One vial of plasma for each collection time point will stored at approximately […] until transferred on dry ice to the bioanalytical facility.
Following cardiac puncture, mice will be perfused with 12 mL of ice-cold PBS via the left ventricle. Brains will then be excised, blotted and placed into pre-weighed 5 mL self standing green top sample tubes. Tubes containing brains will be re-weighed and then snap frozen in liquid nitrogen. Brain samples will be stored frozen at approximately −80° C. until transferred on dry ice to the bioanalytical facility.

[2] = 3 mg/kg i.p. Compound I-19, male CD-1 mice
[3] = after 3 mg/kg i.p. Compound I-19
[4] = after 3 mg/kg i.p. Compound I-19, below the lower levels of quantitation
[5] = brain, 3 mg/kg i.p. Compound I-19, male CD-1 mice
[6] = plasma, 3 mg/kg i.p. Compound I-19, male CD-1 mice

## OC1(c2ccc(Cl)cc2)c2ccccc2C2=NCCN21 (stereo not drawn) [Compound A, 5-(4-chlorophenyl)-2,3-dihydroimidazo[1,2-b]isoindol-5-ol, reference compound]
physchem; 32 °C, pH 7.4, aqueous buffer, transport buffer with sucrose for BCRP and MDR1 (pH 7.4, 32° C.)
  solubility kinetic: ≥ 50 µM
physchem; 37 °C, pH 7.4, aqueous buffer, HBSS (pH 7.4) uptake assay buffer
  solubility kinetic: ≥ 30 µM
physchem; 37 °C, pH 7.4, aqueous buffer, transport buffer for BSEP (pH 7.4)
  solubility kinetic: ≥ 35 µM
physchem; 37 °C, pH 8, aqueous buffer, KH (pH 8.0) uptake assay buffer
  solubility kinetic: ≥ 30 µM
CYP1A2
  inhibition at 50 µM: 13.7%

## Clc1ccc(C2(OCC3OCCO3)c3ccccc3C3=NCCN32)cc1 (stereo not drawn) [Compound I-19]
[1]; 3 mg/kg i.p.
  Cmax in brain relative to plasma: 1.8 fold
  Maximum brain concentration (Cmax) of Compound I-19: 1182 nmol/kg
  Tmax of Compound I-19 (plasma and brain): 5 min
  apparent half-life in brain: 25.6 min and 25.2 min
  apparent half-life in plasma: 25.4 min and 25.2 min
[1]; [2]
  (fu* AUC0-inf)brain/(fu*AUC0-inf)plasma ratio (Kp, uu): 2.12
  Brain/plasma AUC0-inf ratio (Kp): 2.38
[1]; 3 mg/kg i.p., AUC0-inf based
  brain to plasma partitioning coefficient (Kp): 2.38
[1]; 3 mg/kg i.p., corrected for unbound fractions
  brain to plasma unbound partition coefficient (Kp,uu): 2.12
[1]; [3]
  Tmax of Compound A in brain: 45 min
  Tmax of Compound A in plasma: 15 min
  peak brain concentration of Compound A: 60.3 nmol/kg
  peak plasma concentration of Compound A: 48.2 nmol/L
[1]; [4]
  brain concentration of Compound B: < 3 nmol/kg
  plasma concentration of Compound B: < 1 nM
[1]; brain (expressed as nmol/kg = nmol/L per footnote), 3 mg/kg i.p. Compound I-19, male CD-1 mice
  Cmax: 1180 nM
[1]; [5]
  AUC0-inf: 0.521 µM·h
  Apparent T1/2: 25.6 min
  Tmax: 5 min
  fu* AUC0-inf: 0.0172 µM·h
  fu* Cmax: 39.1 nM
[1]; [6]
  AUC0-inf: 0.218 µM·h
  Apparent T1/2: 25.4 min
  Cmax: 648 nM
  Tmax: 5 min
  fu* AUC0-inf: 0.00813 µM·h
  fu* Cmax: 24.1 nM
[1]; read-out: Maximum plasma concentration (Cmax) of Compound I-19, 3 mg/kg i.p.
  Cmax: 648 nM
